Data reported in paper PMC10384408, “Anticancer Tungstenocenes with a Diverse Set of (O,O–), (O,S–) and (O,N–) Chelates—A Detailed Biological Study Using an Improved Evaluation via 3D Spheroid Models” (Pharmaceutics, 2023).
Values joined by “and” are separate entries in the source; they are usually repeats but may differ in a detail not shown here. Equal values may be shown once.

Key:
HCT116 cells [1] = assay: Annexin V-FITC/PI apoptosis assay, HCT116; type: cell-based, human; details: HCT116, 24 h; for ∑apoptotic cells [%]: sum of early and late
[2] = system: MCF-7 multicellular tumor spheroids; assay: Resazurin assay, MCF-7 3D spheroids; type: cell-based, human; details: 96 h; for IC50: spheroids
Method: (§1) CH1/PA-1 (ovarian teratocarcinoma), SW480 (colon carcinoma) and A549 (non-small cell lung cancer) cells were maintained as described in the reference. IMR-90 human fetal lung fibroblasts (from the European Collection of Authenticated Cell Cultures, Porton Down, Salisbury, UK) were cultured in Stable Cell^TM DMEM/F12 supplemented with 0.01 mg/mL human recombinant insulin (both purchased from Sigma-Aldrich) and 10% fetal bovine serum (FBS, BioWest, Nuaillé, France). Human colon carcinoma cell lines HCT116 and HT29 (both kindly provided by the Institute of Cancer Research, Department of Medicine I, Medical University of Vienna, Austria) were cultured in McCoy’s 5a medium supplemented with 4 mM L-glutamine (both purchased from Sigma-Aldrich) and 10% FBS. MCF-7 human breast adenocarcinoma cells (kindly provided by M. Ogris, Department of Pharmaceutical Sciences, University of Vienna, Austria) were maintained in DMEM (high glucose) supplemented with 4 mM L-glutamine, 0.1 mg/mL human insulin (all purchased from Sigma-Aldrich) and 10% FBS. All cell lines were grown as monolayers in 75 cm^2 culture flasks (CytoOne, Starlab, Hamburg, Germany) at 37 °C in a humidified atmosphere containing 5% CO2.
(§2) For growing multicellular tumor spheroids, 400 HCT116, 400 HT29 or 800 MCF-7 cells per well were plated into round-bottom ultra-low attachment 96-well plates (Corning, Glendale, AZ, USA) in the media described above and incubated at 37 °C for 96 h. Spheroids were treated with 10 µM of the two most cytotoxic compounds 3 and 4 for another 96 h. The diameters of the spheroids were measured with Cell^F software under a CKX41 Olympus microscope before treatment and in constant daily intervals over the 96 h treatment period. For statistical analysis the t-test with Welsh’s correction was implemented in GraphPad Prism software (Version 6.01).
(§3) For the resazurin assay in monolayer cultures, cells were seeded into 96-well microculture plates (CytoOne, tissue culture treated, Starlab, Hamburg, Germany) in densities of 2 × 10^3 HCT116, 2 × 10^3 HT29 and 4 × 10^3 MCF-7 cells per well (each in 100 µL). For tests in 3D cultures, spheroids were grown as described above. After 24 h (for monolayers) or 4 days (for spheroids) the test compounds in the appropriate medium were added in serial dilution to the plates to obtain a total volume of 200 µL/well. Wells without cells, containing medium and resazurin (Alfa Aesar, Thermo Fisher, Kandel, Germany) solution were used as blanks. After 96 h exposure 20 µL of the resazurin solution (440 µM) were added to each well, followed by a 4 h (2D) or 12 h (3D) incubation period. Resorufin fluorescence was quantified at 530 nm (and a reference wavelength of 620 nm) by using a microplate reader (Synergy HT, BioTek) with Gen5^TM 3.10 software (BioTek).

[3] = system: CH1/PA-1 (ovarian teratocarcinoma) cells; assay: MTT cytotoxicity assay, CH1/PA-1 monolayer; type: cell-based, human; details: exposure time 96 h, mean ± SD
Procedure, shortened: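 Monolayer cells seeded at 1 × 10^3 (CH1/PA-1), 2 × 10^3 (SW480), 3 × 10^3 (A549) or 7 × 10^3 (IMR-90) per well, preincubated 24 h, then exposed to serially diluted drug for 96 h. Viability by MTT (4 h), absorbance 550 nm (690 nm reference); IC50 interpolated from concentration-effect curves relative to untreated controls, ≥3 independent experiments.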

[4] = system: HCT116 multicellular tumor spheroids; assay: Resazurin assay, HCT116 3D spheroids; type: cell-based, human; details: 96 h; for IC50: spheroids
Method: as §1, §2, §3

MCF-7 cells [5] = assay: Resazurin assay, MCF-7 2D monolayer; type: cell-based, human; details: 96 h
Method: as §1, §3

HCT116 cells [6] = assay: Resazurin assay, HCT116 2D monolayer; type: cell-based, human; details: 96 h
Method: as §1, §3

HT29 cells = assay: Annexin V-FITC/PI apoptosis assay, HT29; details: HT29, 24 h; for ∑apoptotic cells [%]: sum of early and late
MCF-7 cells [7] = assay: Annexin V-FITC/PI apoptosis assay, MCF-7; details: MCF-7, 24 h; for ∑apoptotic cells [%]: sum of early and late
[8] = system: HT29 multicellular tumor spheroids; assay: Resazurin assay, HT29 3D spheroids; type: cell-based, human; details: 96 h; for IC50: spheroids
Method: as §1, §2, §3

## F[P-](F)(F)(F)(F)F.O=c1c([O-])c(-c2ccc(Cl)cc2)oc2ccccc12.[W+4].c1cc[cH-]c1.c1cc[cH-]c1 [Compound 3, Bis(η^5-cyclopentadienyl)[2-(4-chlorophenyl)-3-(oxo-κO)-4(H)-chromen-4-oato-κO]tungsten(IV) hexafluorophosphate]
HCT116 cells [1]; 2 µM
  early apoptotic cells [%] AV+ / PI-: 4.6 ± 1.7%
  late apoptotic cells [%] AV+ / PI+: 13.5 ± 0.6%
  necrotic cells [%] AV- / PI+: 4.3 ± 0.7%
  viable cells [%] AV- / PI-: 77.7 ± 1.6%
  ∑apoptotic cells [%]: 18.1%
HCT116 cells [1]; 20 µM
  early apoptotic cells [%] AV+ / PI-: 5.0 ± 0.9%
  late apoptotic cells [%] AV+ / PI+: 12.1 ± 2.9%
  necrotic cells [%] AV- / PI+: 2.5 ± 0.6%
  viable cells [%] AV- / PI-: 80.4 ± 2.6%
  ∑apoptotic cells [%]: 17.1%
HCT116 cells [1]; 100 µM
  early apoptotic cells [%] AV+ / PI-: 3.3 ± 1.1%
  late apoptotic cells [%] AV+ / PI+: 75.5 ± 5.6%
  necrotic cells [%] AV- / PI+: 12.8 ± 0.2%
  viable cells [%] AV- / PI-: 8.6 ± 4.3%
  ∑apoptotic cells [%]: 78.8%
HCT116 cells [1]; 200 µM
  early apoptotic cells [%] AV+ / PI-: 0.0 ± 0.0%
  late apoptotic cells [%] AV+ / PI+: 94.1 ± 4.8%
  necrotic cells [%] AV- / PI+: 5.5 ± 4.9%
  viable cells [%] AV- / PI-: 0.4 ± 0.3%
[2]
  ratio 3D/2D of IC50 values, MCF-7: 6.8 and 7.0
  IC50: 44 ± 1 µM
[3]
  IC50: 2.7 ± 0.4 µM
[4]
  ratio 3D/2D of IC50 values, HCT116: 2.3
  IC50: 21 ± 4 µM
MCF-7 cells [5]
  IC50: 6.5 ± 1.8 µM
HCT116 cells [6]
  IC50: 9.2 ± 1.4 µM
HT29 cells; 2 µM
  early apoptotic cells [%] AV+ / PI-: 4.6 ± 4.1%
  late apoptotic cells [%] AV+ / PI+: 7.2 ± 3.8%
  necrotic cells [%] AV- / PI+: 5.1 ± 4.2%
  viable cells [%] AV- / PI-: 83.0 ± 3.8%
  ∑apoptotic cells [%]: 11.8%
HT29 cells; 20 µM
  early apoptotic cells [%] AV+ / PI-: 8.6 ± 2.5%
  late apoptotic cells [%] AV+ / PI+: 11.1 ± 1.0%
  necrotic cells [%] AV- / PI+: 5.4 ± 1.2%
  viable cells [%] AV- / PI-: 74.9 ± 3.3%
  ∑apoptotic cells [%]: 19.7%
HT29 cells; 200 µM
  early apoptotic cells [%] AV+ / PI-: 0.8 ± 0.5%
  late apoptotic cells [%] AV+ / PI+: 82.2 ± 4.1%
  necrotic cells [%] AV- / PI+: 14.9 ± 2.8%
  viable cells [%] AV- / PI-: 2.2 ± 1.3%
MCF-7 cells [7]; 2 µM
  early apoptotic cells [%] AV+ / PI-: 1.4 ± 0.5%
  late apoptotic cells [%] AV+ / PI+: 4.3 ± 1.5%
  necrotic cells [%] AV- / PI+: 2.5 ± 0.6%
  viable cells [%] AV- / PI-: 91.8 ± 1.9%
  ∑apoptotic cells [%]: 5.6%
MCF-7 cells [7]; 10 µM
  early apoptotic cells [%] AV+ / PI-: 1.4 ± 0.3%
  late apoptotic cells [%] AV+ / PI+: 7.7± 4.4%
  necrotic cells [%] AV- / PI+: 4.1 ± 1.8%
  viable cells [%] AV- / PI-: 86.9 ± 5.9%
  ∑apoptotic cells [%]: 9.1%
MCF-7 cells [7]; 20 µM
  early apoptotic cells [%] AV+ / PI-: 1.5 ± 0.6%
  late apoptotic cells [%] AV+ / PI+: 11.4 ± 0.7%
  necrotic cells [%] AV- / PI+: 8.7 ± 0.3%
  viable cells [%] AV- / PI-: 78.5 ± 1.0%
  ∑apoptotic cells [%]: 12.9%
MCF-7 cells [7]; 50 µM
  early apoptotic cells [%] AV+ / PI-: 1.3 ± 0.5%
  late apoptotic cells [%] AV+ / PI+: 16.2 ± 2.5%
  necrotic cells [%] AV- / PI+: 25 ± 0.9%
  viable cells [%] AV- / PI-: 57.7 ± 2.2%
[8]
  ratio 3D/2D of IC50 values, HT29: 5.1
  IC50: 86 ± 2 µM

## F[P-](F)(F)(F)(F)F.[O-]c1c(-c2ccc(Cl)cc2)oc2ccccc2c1=S.[W+4].c1cc[cH-]c1.c1cc[cH-]c1 [Compound 4, Bis(η^5-cyclopentadienyl)[2-(4-chlorophenyl)-3-(oxo-κO)-4(H)-chromen-4-thionato-κS]tungsten(IV) hexafluorophosphate]
HCT116 cells [1]; 2 µM
  early apoptotic cells [%] AV+ / PI-: 2.3 ± 0.0%
  late apoptotic cells [%] AV+ / PI+: 8.0 ± 6.2%
  necrotic cells [%] AV- / PI+: 2.4 ± 1.5%
  viable cells [%] AV- / PI-: 87.3 ± 7.8%
  ∑apoptotic cells [%]: 10.3%
HCT116 cells [1]; 20 µM
  early apoptotic cells [%] AV+ / PI-: 1.9 ± 0.4%
  late apoptotic cells [%] AV+ / PI+: 31.1 ± 4.7%
  necrotic cells [%] AV- / PI+: 11.5 ± 1.2%
  viable cells [%] AV- / PI-: 55.5 ± 4.8%
[2]
  ratio 3D/2D of IC50 values, MCF-7: 7.0
  IC50: 19 ± 2 µM
[3]
  IC50: 1.6 ± 0.5 µM
[4]
  ratio 3D/2D of IC50 values, HCT116: 2.5
  IC50: 15 ± 4 µM
MCF-7 cells [5]
  IC50: 2.7 ± 0.7 µM
HCT116 cells [6]
  IC50: 6 ± 0.9 µM
HT29 cells; 2 µM
  early apoptotic cells [%] AV+ / PI-: 3.7 ± 3.2%
  late apoptotic cells [%] AV+ / PI+: 4.8 ± 1.3%
  necrotic cells [%] AV- / PI+: 5.4 ± 5.0%
  viable cells [%] AV- / PI-: 86.2 ± 3.1%
  ∑apoptotic cells [%]: 8.5%
HT29 cells; 20 µM
  early apoptotic cells [%] AV+ / PI-: 16.8 ± 5.2%
  late apoptotic cells [%] AV+ / PI+: 19.5 ± 2.0%
  necrotic cells [%] AV- / PI+: 13.3 ± 5.1%
  viable cells [%] AV- / PI-: 50.4 ± 4.1%
MCF-7 cells [7]; 2 µM
  early apoptotic cells [%] AV+ / PI-: 1.0 ± 0.8%
  late apoptotic cells [%] AV+ / PI+: 3.4 ± 1.2%
  necrotic cells [%] AV- / PI+: 1.8 ± 0.0%
  viable cells [%] AV- / PI-: 93.9 ± 2.1%
  ∑apoptotic cells [%]: 4.4%
MCF-7 cells [7]; 10 µM
  early apoptotic cells [%] AV+ / PI-: 1.2 ± 0.5%
  late apoptotic cells [%] AV+ / PI+: 12.0 ± 2.0%
  necrotic cells [%] AV- / PI+: 11.7 ± 4.7%
  viable cells [%] AV- / PI-: 75.2 ± 2.2%
  ∑apoptotic cells [%]: 13.2%
MCF-7 cells [7]; 20 µM
  early apoptotic cells [%] AV+ / PI-: 1.0 ± 0.4%
  late apoptotic cells [%] AV+ / PI+: 15.1 ± 3.3%
  necrotic cells [%] AV- / PI+: 33.8 ± 14.5%
  viable cells [%] AV- / PI-: 50.2 ± 10.8%
MCF-7 cells [7]; 50 µM
  early apoptotic cells [%] AV+ / PI-: 0.0 ± 0.0%
  late apoptotic cells [%] AV+ / PI+: 43.4 ± 3.7%
  necrotic cells [%] AV- / PI+: 51.5 ± 10.3%
  viable cells [%] AV- / PI-: 5.0 ± 6.6%
  ∑apoptotic cells [%]: 43.4%
[8]
  ratio 3D/2D of IC50 values, HT29: 5.6
  IC50: 31 ± 6 µM
